{"source": "patent US20240254536A1", "about": "“[…] ARRAY AND USES THEREOF” (DrugArray, Inc., priority 2021, published 2024)", "system": "E. coli", "test": "pin array antibiotic susceptibility assay (zones of inhibition) on LB agar plates", "format": "cell-based", "conditions": "7×7 pin array", "description": "1. Cell Introduction: E. coli resuspension were plated onto LB agar plates and incubated at 37° C. until the cells reach desired condition.\n2. Pin array preparation: Two 7×7 pin arrays were loaded with ampicillin from 0.2 μg to 4 μg according to the configurations shown in FIGS. 5B and 6B, respectively.\n(§1) 3. Treatment: After the cells reach the desired condition, the pin arrays loaded with ampicillin according to the configurations shown in FIGS. 5B and 6B were coupled to LB agar plates with E. coli culture. The LB agar plates were incubated at 37° C.\n2. Pin array preparation: Two 7×7 pin arrays were loaded with ampicillin from 0.4 μg to 4 μg according to the configurations shown in FIGS. 7A and 7B, respectively.\nas §1, with “7A” for “5B”, “7B” for “6B”, “37° C., and stored overnight at 4°” for “37°”, “C. and in Styrofoam box with ice packs, respectively.” for “C.”\n2. Pin array preparation: A 7×7 pin array was loaded with ampicillin from 0.4 μg to 4 μg according to the configurations shown in FIG. 8A.\n3. Treatment: After the cells reach the desired condition, the pin array loaded with ampicillin according to the configurations shown in FIG. 8A was coupled to an LB agar plate with E. coli culture. The LB agar plate was incubated at 37° C., and images of the plates were taken at the same day (FIG. 8A), and after 5 weeks at 4° C. (FIG. 8B).", "data": [{"smiles": "CC1(C)S[C@@H]2[C@H](NC(=O)[C@H](N)c3ccccc3)C(=O)N2[C@H]1C(=O)O", "note": "[ampicillin]", "values": [{"measurement": "zones of inhibition", "setting": "ampicillin 0.2 μg to 4 μg, configuration of FIG. 5B, 37° C. (FIG. 5A)", "result": "well-defined, and a dose-dependent manner of the sizes of the zones"}, {"measurement": "zones of inhibition", "setting": "ampicillin 0.2 μg to 4 μg, configuration of FIG. 6B, 37° C. (FIG. 6A)", "result": "well-defined, dose-dependent zones of inhibition"}, {"measurement": "zones of inhibition", "setting": "ampicillin 0.4 μg to 4 μg, after 5 weeks of storage at 4° C. (FIG. 8B)", "result": "smaller zones of inhibition"}, {"measurement": "zones of inhibition", "setting": "ampicillin 0.4 μg to 4 μg, image taken the same day (FIG. 8A)", "result": "Well-defined, dose-dependent zones of inhibition"}, {"measurement": "zones of inhibition", "setting": "ampicillin 0.4 μg to 4 μg, stored overnight at 4° C. (FIG. 7A)", "result": "Well-defined, dose-dependent zones of inhibition"}, {"measurement": "zones of inhibition", "setting": "ampicillin 0.4 μg to 4 μg, stored overnight in Styrofoam box with ice packs (FIG. 7B)", "result": "Well-defined, dose-dependent zones of inhibition"}]}]}
